Key:
[1] = system: HCV genotype 1a H77 replicon (Huh-7 lunet cells); assay: HCV replicon assay, transient transfection, genotype 1a; type: cell-based; details: Hepatitis C virus, 48 h, genotype 1a H77, two days incubation, luciferase
From the text: (§1) In a transient set-up, a Huh-7 lunet hepatoma cell line was transiently transfected with an autonomously replicating RNA encoding a bi-cistronic expression construct. This construct comprises a firefly luciferase reporter gene preceding the NS3-NS5B subgenomic region of HCV (genotype 1a H77 or 1b Con1). Translation of the HCV subgenomic region is mediated by an internal ribosome entry site of encephalomyocarditis virus. The construct is furthermore flanked by 5′ and 3′ untranslated regions of HCV (genotype 1a H77 or 1b Con 1, respectively), which allow for replication of the RNA.
(§2) Cells were plated in 384 well plates in the presence of test and control compounds, which were added in various concentrations. Following an incubation of two days, replication of the HCV subgenomic replicon RNA was measured by assaying luciferase activity (using standard luciferase assay substrates and reagents and a Perkin Elmer ViewLux™ ultraHTS microplate imager). HCV subgenomic replicon containing cells in the control cultures have high luciferase expression in the absence of any inhibitor. The inhibitory activity of the compound was monitored, enabling a dose-response curve for each test compound. EC50 values were then calculated, which represent the amount of compound required to decrease the level of detected luciferase activity by 50%, or more specifically, to reduce the ability of the genetically linked HCV subgenomic RNA to replicate.
(§3) Where a compound of formula (I) was tested more than once in the transient replicon assay, the average of all test results is given in Table 3.

[2] = system: HCV type 1b replicon (Huh-7 luc/neo cells); assay: HCV replicon assay, stable transfection (Huh-Luc, luciferase); type: cell-based; details: Hepatitis C virus, Huh-7, 72 h, three days incubation, average of all tests
From the text: The compounds of formula (I) were examined for inhibitory activity in the HCV replicon. This cellular assay is based on a bicistronic expression construct, as described by Lohmann et al. (Science (1999) 285: 110-113; Journal of Virology (2003) 77: 3007-3019) with modifications described by Krieger et al. (Journal of Virology (2001) 75: 4614-4624), and Lohmann et al. (Journal of Virology (2003) 77: 3007-3019) for genotype 1b and by Yi et al. (Journal of Virology (2004) 78: 7904-7915) for genotype 1a, in a multi-target screening strategy.
The method was as follows. The assay utilized the stably transfected cell line Huh-7 luc/neo (hereafter referred to as Huh-Luc). This cell line harbors an RNA encoding a bicistronic expression construct comprising the wild type NS3-NS5B regions of HCV type 1b translated from an Internal Ribosome Entry Site (IRES) from encephalomyocarditis virus (EMCV), preceded by a reporter portion (FfL-luciferase), and a selectable marker portion (neoR, neomycine phosphotransferase). The construct is flanked by 5′ and 3′ NTRs (non-translated regions) from HCV type 1b. Continued culture of the replicon cells in the presence of G418 (neoR) is dependent on the replication of the HCV RNA. The stably transfected replicon cells that replicate HCV RNA autonomously and to high levels, encoding inter alia luciferase, were used for screening the antiviral compounds.
The replicon cells were plated in 384 well plates in the presence of the test and control compounds which were added in various concentrations. Following an incubation of three days, HCV replication was measured by assaying luciferase activity (using standard luciferase assay substrates and reagents and a Perkin Elmer ViewLux™ ultraHTS microplate imager). Replicon cells in the control cultures have high luciferase expression in the absence of any inhibitor. The inhibitory activity of the compound was monitored on the Huh-Luc cells, enabling a dose-response curve for each test compound. EC50 values were then calculated, which represent the amount of compound required to decrease the level of detected luciferase activity by 50%, or more specifically, to reduce the ability of the genetically linked HCV replicon RNA to replicate.
Where a compound of formula (I) was tested more than once in the replicon assay, the average of all test results is given in this Table 2.

[3] = Counterscreen Huh7-CMV-Luc; type: cell-based; details: human
From the text: (§4) Counterscreen cell lines included a Huh-7 hepatoma cell line containing a human cytomegalovirus major immediate-early promoter-Luc construct (Huh7-CMV-Luc) and an MT4 T-cell line containing a long terminal repeat-Luc reporter (MT4-LTR-Luc).

[4] = Counterscreen MT4-LTR-Luc; type: cell-based; details: human
From the text: as §4

[5] = system: HCV genotype 1b replicon NS5A Y93H; assay: Transient HCV 1b replicon, NS5A mutant Y93H; type: cell-based; details: Hepatitis C virus, read-out: EC50 Y93H
From the text: as §1
(§5) In addition to the wild-type constructs, site-directed mutations were introduced into the transient HCV genotype 1b replicon in the gene encoding for the non-structural protein 5A (NS5A). More precisely, amino acid residues 28, 30, 31 and 93 in NS5A were independently altered.
as §2

[6] = system: HCV genotype 1b Con1 replicon (Huh-7 lunet cells); assay: HCV replicon assay, transient transfection, genotype 1b; type: cell-based; details: Hepatitis C virus, 48 h, genotype 1b Con1, two days incubation, luciferase
From the text: as §1, §2, §3

[7] = system: HCV genotype 1b replicon NS5A R30H; assay: Transient HCV 1b replicon, NS5A mutant R30H; type: cell-based; details: Hepatitis C virus, read-out: EC50 R30H
From the text: as §1, §5, §2

[8] = system: HCV genotype 1b replicon NS5A L28T; assay: Transient HCV 1b replicon, NS5A mutant L28T; type: cell-based; details: Hepatitis C virus, read-out: EC50 L28T
From the text: as §1, §5, §2

[9] = system: HCV genotype 1b replicon NS5A L31F; assay: Transient HCV 1b replicon, NS5A mutant L31F; type: cell-based; details: Hepatitis C virus, read-out: EC50 L31F
From the text: as §1, §5, §2

[10] = system: HCV genotype 1b replicon NS5A L31V; assay: Transient HCV 1b replicon, NS5A mutant L31V; type: cell-based; details: Hepatitis C virus, read-out: EC50 L31V
From the text: as §1, §5, §2

[11] = system: HCV genotype 1b replicon NS5A Y93C; assay: Transient HCV 1b replicon, NS5A mutant Y93C; type: cell-based; details: Hepatitis C virus, read-out: EC50 Y93C
From the text: as §1, §5, §2

[12] = system: HCV genotype 1b replicon NS5A L31M; assay: Transient HCV 1b replicon, NS5A mutant L31M; type: cell-based; details: Hepatitis C virus, read-out: EC50 L31M
From the text: as §1, §5, §2

[13] = Pharmacokinetic analysis after single oral administration, liver concentration; type: in vivo; details: male Sprague-Dawley rats, 10 mg/kg oral, solution in PEG400
Description: Compounds were dosed orally as a solution in PEG400 to male Sprague-Dawley rats at a dose level of 10 mg/kg. At serial time points, after dosing, the animals were sacrificed and liver samples collected. All samples were analyzed using a qualified research LC-MS/MS method to determine the concentration of the tested compounds in liver. Non-compartmental analysis using the lin/log trapezoidal rule was performed using WinNonlin™ Professional (Version 5.2.1).

SMILES | EC50 [1] | EC50 [2] | CC50 [3] | CC50 [4] | EC50 [5] | EC50 [6] | EC50 [7] | EC50 [8] | EC50 [9] | EC50 [10] | EC50 [11] | EC50 [12] | Liver AUC [13]
COC(=O)NC(C(=O)N1CCC[C@H]1c1ncc(-c2ccc3cc(-c4ccc5nc([C@@H]6CCCN6C(=O)C(NC(=O)OC)C6CCOCC6)[nH]c5c4)ccc3c2)[nH]1)C1CCOCC1 (mixture of isomers) [Compound 12] | 0.268 nM | 0.08 nM | > 984 nM | > 984 nM | 0.275 nM | 0.11 nM | – | – | – | – | – | – | –
COC(=O)NC(C(=O)N1CCC[C@H]1c1ncc(-c2ccc3cc(-c4ccc5nc([C@@H]6CCCN6C(=O)C(NC(=O)OC)c6ccccc6)[nH]c5c4)ccc3c2)[nH]1)c1ccccc1 (mixture of isomers) [Compound 14] | 0.836 nM | 0.004 nM | > 984 nM | > 984 nM | 0.093 nM | 0.004 nM | – | – | – | – | – | – | –
COC(=O)N[C@H](C(=O)N1CCC[C@H]1c1ncc(-c2ccc(-c3ccc4nc([C@@H]5CCCN5C(=O)[C@@H](NC(=O)OC)C(C)C)[nH]c4c3)cc2)[nH]1)C(C)C [Compound 1] | – | 0.058 nM | – | > 984 nM | 1.33 nM | 0.058 nM | 0.6 nM | 4.12 nM | 0.775 nM | 1.06 nM | 0.076 nM | – | –
COC(=O)N[C@H](C(=O)N1CCC[C@H]1c1ncc(-c2ccc(-c3ccc4nc([C@@H]5CCCN5C(=O)[C@@H](NC(=O)OC)[C@@H](C)OC)[nH]c4c3)cc2)[nH]1)[C@@H](C)OC [Compound 2] | – | 0.54 nM | > 984 nM | > 984 nM | 2.88 nM | 0.909 nM | 2.69 nM | 9.05 nM | 1.81 nM | 1.38 nM | 0.655 nM | – | –
COC(=O)N[C@H](C(=O)N1CCC[C@H]1c1ncc(-c2ccc3cc(-c4ccc5nc([C@@H]6CCCN6C(=O)[C@@H](NC(=O)OC)C(C)C)[nH]c5c4)ccc3c2)[nH]1)C(C)C [Compound 3] | 0.051 nM | 0.007 nM | 7640 nM | 5820 nM | 0.47 nM | 0.008 nM | 0.072 nM | 0.229 nM | 0.032 nM | 0.504 nM | 0.012 nM | 0.184 nM | 23157 ng·h/g
COC(=O)N[C@H](C(=O)N1CCC[C@H]1c1ncc(-c2ccc3cc(-c4ccc5nc([C@@H]6CCCN6C(=O)[C@@H](NC(=O)OC)[C@@H](C)OC)[nH]c5c4)ccc3c2)[nH]1)[C@@H](C)OC [Compound 4] | 0.033 nM | 0.012 nM | > 984 nM | > 984 nM | 0.034 nM | 0.016 nM | 0.056 nM | 0.052 nM | 0.02 nM | 0.048 nM | 0.013 nM | 0.052 nM | 1539 ng·h/g
COC(=O)N[C@H](C(=O)N1CCC[C@H]1c1ncc(-c2ccc3cc(-c4ccc5nc([C@@H]6CCCN6C(=O)[C@@H](NC(=O)OC)C6CC6)[nH]c5c4)ccc3c2)[nH]1)C1CC1 [Compound 5] | – | 0.039 nM | > 984 nM | > 984 nM | 10.8 nM | 0.058 nM | – | – | – | – | – | – | –
COC(=O)N[C@H](C(=O)N1CCC[C@H]1c1ncc(-c2ccc3cc(-c4ccc5nc([C@@H]6CCCN6C(=O)[C@@H](NC(=O)OC)[C@@H](C)O)[nH]c5c4)ccc3c2)[nH]1)[C@@H](C)O [Compound 6] | 0.181 nM | 0.132 nM | > 984 nM | > 984 nM | 1.01 nM | 0.142 nM | – | – | – | – | – | – | –
COC(=O)N[C@@H](CC(C)C)C(=O)N1CCC[C@H]1c1ncc(-c2ccc3cc(-c4ccc5nc([C@@H]6CCCN6C(=O)[C@H](CC(C)C)NC(=O)OC)[nH]c5c4)ccc3c2)[nH]1 [Compound 7] | 0.989 nM | 0.005 nM | > 984 nM | > 984 nM | 3.41 nM | 0.003 nM | – | – | – | – | – | – | –
COCC[C@H](NC(=O)OC)C(=O)N1CCC[C@H]1c1ncc(-c2ccc3cc(-c4ccc5nc([C@@H]6CCCN6C(=O)[C@H](CCOC)NC(=O)OC)[nH]c5c4)ccc3c2)[nH]1 [Compound 10] | – | 0.029 nM | > 984 nM | > 984 nM | 1.03 nM | 0.057 nM | – | – | – | – | – | – | –
COC(=O)N[C@H](C(=O)N1CCC[C@H]1c1ncc(-c2ccc3cc(-c4ccc5nc([C@@H]6CCCN6C(=O)[C@@H](NC(=O)OC)C6CCCC6)[nH]c5c4)ccc3c2)[nH]1)C1CCCC1 [Compound 15] | 0.277 nM | 0.003 nM | > 984 nM | > 984 nM | 1.19 nM | 0.003 nM | – | – | – | – | – | – | –
CC[C@@H](C)[C@H](NC(=O)OC)C(=O)N1CCC[C@H]1c1ncc(-c2ccc3cc(-c4ccc5nc([C@@H]6CCCN6C(=O)[C@@H](NC(=O)OC)[C@H](C)CC)[nH]c5c4)ccc3c2)[nH]1 [Compound 19] | 0.471 nM | 0.003 nM | > 984 nM | > 984 nM | 5.19 nM | 0.002 nM | – | – | – | – | – | – | –
CC[C@H](C)[C@H](NC(=O)OC)C(=O)N1CCC[C@H]1c1nc2cc(-c3ccc4cc(-c5cnc([C@H]6CCCN6C(=O)[C@@H](NC(=O)OC)[C@@H](C)OC)[nH]5)ccc4c3)ccc2[nH]1 [Compound 20] | 324 nM | 2.3 nM | 8160 nM | 9410 nM | 336 nM | 4.1 nM | – | – | – | – | – | – | –
CC[C@H](C)[C@H](NC(=O)OC)C(=O)N1CCC[C@@H]1c1ncc(-c2ccc3cc(-c4ccc5[nH]c([C@@H]6CCCN6C(=O)[C@@H](NC(=O)OC)[C@@H](C)OC)nc5c4)ccc3c2)[nH]1 [Compound 21] | 482 nM | 2.2 nM | 8160 nM | 9140 nM | 275 nM | 2.9 nM | – | – | – | – | – | – | –
